Assay: Particle size by laser diffractometry (Malvern Mastersizer 2000)
Type: physicochemical
Conditions: after milling 30 minutes at 350 rpm in a Retsch ball mill
Protocol: The expression “average particle diameter” relates in the context of this invention to the D50 value of the volume-average particle diameter determined by means of laser diffractometry. In particular, a Malvern Instruments Mastersizer 2000 was used to determine the diameter (wet measurement, 2,000 rpm, ultrasound 60 sec., preferably shading 4 to 13%, preferably dispersion in liquid paraffin, the evaluation using the Fraunhofer method). The average particle diameter, which is also referred to as the D50 value of the integral volume distribution, is defined in the context of this invention as the particle diameter at which 50% by volume of the particles have a smaller diameter than the diameter which corresponds to the D50 value. Similarly, 50% by volume of the particles than have a larger diameter than the D50 value. Analogously, the D10 value of the integral volume distribution is defined as the particle diameter at which 10% by volume of the particles have a smaller diameter than the diameter which corresponds to the D10 value. Accordingly, the D90 value of the integral volume distribution is defined as the particle diameter at which 90% by volume of the particles have a smaller diameter than the diameter which corresponds to the D90 value.

Compound: COC(c1ccccc1)(c1ccccc1)[C@H](Oc1nc(C)cc(C)n1)C(=O)O [Example 3, (2S)-2-(4,6-dimethylpyrimidin-2-yl)oxy-3-methoxy-3,3-di(phenyl)propanoic acid]
- particle size d10: 5 μm
- particle size d50: 18 μm
- particle size d90: 63 μm

— US20110189243A1, “PHARMACEUTICAL FORMULATION FOR LOWERING PULMONARY BLOOD PRESSURE” (Ratiopharm GMBH, priority 2008, published 2011)
